Here are results for 5 molecules from patent publication US20250170159A1, “COMPOSITIONS COMPRISING STING AGONISTS AND METHODS OF USE FOR TREATING GLIOMA” (ImmunoGenesis, Inc., priority 2023, published 2025).

For one data set, the system named is QPP8 glioma cells. The note with it: administered on days 14, 21, and 28.
Data set [1] deals with spontaneous unresected gliomas. The note with it: dogs; previously shown (ref 12); cited from earlier work.
The test system of data set [2] is spontaneous unresected gliomas. Put plainly: Intratumoral delivery of STING agonist in spontaneous canine high-grade glioma. Type of data set: in vivo, dog. As for the experimental part:
A single ˜5 mm-diameter burr hole craniectomy was made at entry point determined by Brainsight Neuronavigation System.
A 100 uL-Hamilton syringe secured in a calibrated holder on an x-y stage containing 50 μL of Compound C at varying concentrations
Contrast enhancing target was selected using the MRI reconstruction.
Compound of Formula C was injected at a rate of 2 uL/minute.
Compound of Formula C was administered via repeated intratumoral injections up to 20 μg in 50 uL in a large animals (canines) with spontaneous unresected gliomas.

A further data set relates to human U87 glioma cells. As to the kind of experiment: Humanized mice implanted with human U87 glioma cells. Type of data set: in vivo, mouse. The text has this: . (FIG. 15A) Multiplexed sequential immunofluorescence images of the STING expression at baseline in humanized mouse brain implanted with U87 glioma cells and collected at endpoint. The right image represents a high magnification of the white box drawn in the left image. The white arrows highlight CD31+STING+ vessels and green arrows highlight the CD163+STING+ macrophages. […] Scale bars: 500 μm (left panel) and 50 μm (right panel). A higher magnification image of a CD163+STING+ cell is represented at the upper right quadrant of the right image (scale bar: 20 μm). […] MFI, mean fluorescence intensity; h, human; TAM, tumor-associated macrophage; Mono, monocyte; PMN, […]; MDSC, myeloid-derived suppressor cell. […] The markers were assessed via Cytek Aurora flow cytometer and the CD45+CD11b+ population was analyzed for the indicated markers. *P<0.05; ** P<0.01; *** P<0.001; **** P<0.0001 by 2-tailed Student's t test (FIGS. 15E-H).
STING expression on human and murine glioma cells was analyzed (FIG. 15A). […] To evaluate whether this treatment induces an inflammatory response directed against the CNS, the mice were evaluated daily. […]

Another data set has as its system CT-2A glioma cells. The following applies: FIG. 18B right panel; control MS 28 days.
The next data set has as its system GL261 glioma cells. The note with it: FIG. 18B left panel; control MS 25 days.
Data set [3] has as its system U2940 human B-cell lymphoma, 8505C human thyroid carcinoma, and B16F10-PDL2 murine melanoma tumor cell lines. Put plainly: ADCP reporter cell assay. Type of data set: cell-based. The note with it: FIG. 10. As for the experimental part: (§1) A dose range was tested in ADCC (FIGS. 10A, 10C, and 10E) and ADCP FIGS. 10B, 10C, and 10F) assays against U2940 human B-cell lymphoma (FIGS. 10A and 10B), 8505C human thyroid carcinoma (FIGS. 10C and 10D), and B16F10-PDL2 murine melanoma (FIGS. 10E, and 10F) tumor cell lines.

Another data set addresses T1, PD-1: PD-L2 (Homo sapiens, UniProt Q9BQ51).
T1 construct: expressed in transfected cells; host or cells: PD-1 expressing effector cells and PD-L2+ artificial antigen presenting cells
T1 sequence (Q9BQ51 20-273): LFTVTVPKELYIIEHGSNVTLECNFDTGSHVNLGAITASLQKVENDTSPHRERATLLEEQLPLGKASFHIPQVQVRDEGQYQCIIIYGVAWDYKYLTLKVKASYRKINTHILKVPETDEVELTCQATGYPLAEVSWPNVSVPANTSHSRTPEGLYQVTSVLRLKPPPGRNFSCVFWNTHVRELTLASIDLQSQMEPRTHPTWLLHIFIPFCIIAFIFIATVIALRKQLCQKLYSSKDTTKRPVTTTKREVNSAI
Put plainly: PD-1 pathway blockade reporter cell assay, PD-L2+ cells. Type of data set: cell-based. The following applies: FIG. 9. As for the experimental part:
(§2) A dose range of 50.000-0.015 nM was tested against PD-L1+ cells (FIG. 9A), PD-L2+ cells (FIG. 9B), and a 50:50 mixture of PD-L1+ and PD-L2+ cells (FIG. 9C). Nonlinear regression was used to generate best-fit curves in GraphPad Prism.
(§3) The ability of Ab-27907 to interrupt the PD-1 pathway through binding of the ligands PD-L1 and PD-L2 was tested in a reporter cell system. In this assay, PD-1 expressing effector cells are incubated with artificial antigen presenting cells expressing PD-L1 or PD-L2 with a T cell receptor (TCR). Without any antibodies, luminescence activity is low, as PD-1 binds its ligands, preventing TCR engagement and production of luciferase.

A further data set deals with T2, PD-1: PD-L1 (Homo sapiens, UniProt Q9NZQ7).
T2 construct: expressed in transfected cells; host or cells: PD-1 expressing effector cells and PD-L1+ artificial antigen presenting cells
As to the kind of experiment: PD-1 pathway blockade reporter cell assay, PD-L1+ cells. Type of data set: cell-based. The note with it: FIG. 9. As for the experimental part:
as §2, §3

The next data set relates to B16F10-PDL2 tumor. Put plainly: B16F10-PDL2 melanoma tumor-bearing mice. The following applies: monotherapy, first 2 weeks.
For data set [4], the system named is U2940 human B-cell lymphoma, 8505C human thyroid carcinoma, and B16F10-PDL2 murine melanoma tumor cell lines. As to the kind of experiment: ADCC reporter cell assay. Type of data set: cell-based. The note with it: FIG. 10. As for the experimental part: as §1
In a further data set the test system is TS/A tumor. Put plainly: TS/A mouse model of mammary carcinoma. The note with it: versus control group.

T2 sequence (Q9NZQ7 19-290): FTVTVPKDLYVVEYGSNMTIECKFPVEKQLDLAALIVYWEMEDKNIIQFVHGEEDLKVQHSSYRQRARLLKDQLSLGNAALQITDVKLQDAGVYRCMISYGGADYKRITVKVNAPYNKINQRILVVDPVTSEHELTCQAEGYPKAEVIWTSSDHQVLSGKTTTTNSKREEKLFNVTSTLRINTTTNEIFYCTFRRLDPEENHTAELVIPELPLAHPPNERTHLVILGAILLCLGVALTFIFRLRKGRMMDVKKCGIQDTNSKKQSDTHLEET
From the text for B16F10-PDL2 tumor: Left: Mean±SEM tumor volume (mm^3) is plotted on the y-axis against days post tumor inoculation on the x-axis. Right: Kaplan Meier plots of survival.
Method for CT-2A glioma cells: As such, we evaluated synergy in the CT-2A and QPP8v immunocompetent murine glioma models. […] To visualize TME features that would be reflective of response, the CT-2A model was treated on day 7 and during the therapeutic window, the activation of the STING pathway (i.e., p-IRF3) and the immune infiltration were analyzed with multiplexed SeqIF imaging.
From the text for GL261 glioma cells: FIG. 18A: Schema of the treatment of immunocompetent mice that underwent i.e. implantation of either GL261 or CT-2A glioma cells. […] FIG. 18C: Schema of the treatment of immunocompetent mice that underwent i.e. implantation of either CT-2A or QPP8v (subclone) glioma cells. […] FIG. 18E: Multiplexed sequential immunofluorescence images of untreated CT-2A gliomas (n=3). […] White boxes outline the portion shown at higher magnification in the right column of images. Scale bars: 500 μm (left 3 columns) and 50 μm (right column).
From the text for QPP8 glioma cells: The total amount of immune cells was quantified based on all live CD45+ cells and specifically on CD11b+Ly6C+ expression of mono-MDSCs. […] Each dot represents an analyzed tumor or LN. FIG. 16E: Expression of immunosuppressive markers CD206 and CD163 spanning myeloid populations and as a function of treatment. FIG. 16F: Myeloid PD-L1 expression on various immune lineages in tumors and LNs.

With `Nc1ncnc2c1ccn2[C@@H]1O[C@@H]2COP(=O)(S)O[C@@H]3[C@H](O)[C@@H](COP(=O)(S)O[C@H]2[C@H]1O)O[C@H]3n1cnc2c(N)ncnc21` (stereo partly drawn) [Compound 8779], in the data set with QPP8 glioma cells, the “therapeutic outcome” value is recorded as “curative”. The “median survival (MS)” value with QPP8 glioma cells (control MS=103 days) is “undefined”. The “radiographic regression in spontaneously arising glioblastomas” value in data set [1] was “induces radiographic regression”.
Take `Nc1ncnc2c1ccn2[C@@H]1O[C@@H]2COP(=O)(S)O[C@@H]3[C@H](O)[C@@H](COP(=O)(S)O[C@H]2[C@H]1O)O[C@H]3n1cnc2c(N)ncnc21` (stereo partly drawn) [Compound C]: the “radiographic responses in spontaneously arising high-grade gliomas” value in [2] (dog, single injection) is “can produce radiographic responses”. This molecule yielded an MTD in [2] (repeated intratumoral injections in 50 uL, canines with unresected gliomas) of 15 to 20 µg.
As to `Nc1ncnc2c1ncn2[C@@H]1O[C@@H]2COP(O)(=S)O[C@@H]3C(O)[C@@H](COP(O)(=S)O[C@H]2[C@H]1O)O[C@H]3n1cnc2c(N)ncnc21` (stereo partly drawn) [MLRR-S2-CDA, reference compound], the “survival of U87 tumor-bearing animals” value in the data set on human U87 glioma cells (both P<0.0001) was “significantly extended survival”. Also, the “median survival (MS)” value in the data set with human U87 glioma cells (treated on days 5, 10, and 15, control MS 26.5 days) was found to be 35 days.
As for `C[C@H](NC(=O)/C(C#N)=C/c1cccc(Br)n1)c1ccccc1` [WP1066, reference compound], the “median survival (MS)” value with CT-2A glioma cells was found to be 28 days; in the data set on GL261 glioma cells, 30 days.

B1: Ab-27907: dual functioning PD-L1/PD-L2 monoclonal antibody; Fc point mutations enhance cell-mediated effector functions (antibody, V domains shown)
VH: QVQLVESGGGVIQPGRSLRLSCAASGFTFSAYLMHWVRQAPGKGLEWVAAIGYDGMNKYYADSVKGRFTISRDNSKNTLYLQMNSLRAEDTAVYYCARAGIEYSYAYTDYWGQGTLVTVSS
VL: EIVLTQSPGTLSLSPGERATLSCRASQFVYSSDLAWYQQKPGQAPRLLIYGASARAAGIPDRFSGSGSGTDFTLTISRLEPEDFAVYYCMQFGWWPPRTFGGGTKVEIK
With B1, in [3], the “capacity to induce ADCP” value is given as “robust activity”. In addition, the “blockade of PD-1: PD-L2” value with PD-1: PD-L2 was “additionally blocks PD-1: PD-L2”. In the data set with PD-1: PD-L1, the “blockade of PD-1: PD-L1” value was “blocks PD-1: PD-L1 as well as pembrolizumab”. The tumor growth entry with B16F10-PDL2 tumor is listed as “significantly inhibited tumor growth”. In addition, in data set [4], the “capacity to induce ADCC” value is listed as “robust activity”. Besides, in the data set with TS/A tumor, the “survival” value was “significant extended survival”.
